How the values were obtained:
Type in all cases: biochemical
secretory G4 = molecular target: T1, secretory G4 (Homo sapiens, UniProt Q9Y2A9, R328H); test: β1,3-galactosyltransferase activity of the secretory G4; settings: receptor substrate 10 mmol/l, 37° C., 16 hours
T1 construct: made in house; host or cells: Sf21 insect cells infected with recombinant baculovirus from pVL1393-F2G4
T1 sequence (Q9Y2A9 38-372 R328H): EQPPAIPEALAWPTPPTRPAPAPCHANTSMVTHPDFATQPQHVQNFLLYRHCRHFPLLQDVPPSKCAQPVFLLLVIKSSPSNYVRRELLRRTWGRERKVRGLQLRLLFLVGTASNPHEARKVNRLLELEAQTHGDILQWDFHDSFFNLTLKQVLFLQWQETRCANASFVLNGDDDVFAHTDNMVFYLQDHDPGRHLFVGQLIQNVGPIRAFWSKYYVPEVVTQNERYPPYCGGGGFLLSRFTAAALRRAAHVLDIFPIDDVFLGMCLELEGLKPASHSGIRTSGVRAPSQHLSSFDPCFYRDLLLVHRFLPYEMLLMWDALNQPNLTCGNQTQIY
Protocol: On the other hand, when β1,3-galactosyltransferase activity of the secretory G4 was measured by using GlcNAc and GlcNAcβ1-3Galβ1-4Glc as receptor substrates, the activity was not detected.
(§1) The glycosyltransferase reaction was carried out as follows. The reaction was carried out at 37° C. for 16 hours in 40 μl of an assay solution [50 mmol/l MOPS (pH 7.5), 5 mmol/l UDP-GlcNAc (SIGMA), 5 mmol/l MnCl2, 10 mmol/l of a sugar chain substrate and 10 μl of the above eluate]. Next, the reaction solution was treated at 100° C. for 5 minutes and then centrifuged at 10,000×g for 20 minutes to obtain the supernatant, and a portion thereof was analyzed by using HPAE/PAD (High Performance Anion Pulsed Amperometoric Detection; manufactured by DIONEX). The specific method was carried out in the usual way [Anal. Biochem., 189, 151 (1990), J. Biol. Chem., 273, 433 (1998)].

secreted G3 = molecular target: T2, secreted G3 (Homo sapiens, UniProt Q9NY97); test: β1,3-galactosyltransferase activity of the secreted G3; settings: acceptor substrate, method of Example 11(2)
T2 construct: made in house; host or cells: Sf21 insect cells infected with recombinant baculovirus from pVL1393-F2G3
T2 sequence (Q9NY97 31-397): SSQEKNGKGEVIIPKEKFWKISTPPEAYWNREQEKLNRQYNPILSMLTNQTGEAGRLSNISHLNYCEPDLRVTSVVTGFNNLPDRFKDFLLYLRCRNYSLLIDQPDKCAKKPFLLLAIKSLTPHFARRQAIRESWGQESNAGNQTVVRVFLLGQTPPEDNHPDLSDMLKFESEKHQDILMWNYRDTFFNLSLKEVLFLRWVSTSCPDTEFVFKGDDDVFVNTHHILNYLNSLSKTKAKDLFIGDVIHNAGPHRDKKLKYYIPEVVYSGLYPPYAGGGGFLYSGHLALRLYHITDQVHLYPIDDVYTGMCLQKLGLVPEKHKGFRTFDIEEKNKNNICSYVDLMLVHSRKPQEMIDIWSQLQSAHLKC
Protocol: as §1
On the other hand, when β1,3-galactosyltransferase activity of the secreted G3 was measured by using GlcNAc and GlcNAcβ1-3Galβ1-4Glc as acceptor substrates, the activity was not detected. […] The method described in Example 11(2) was used.

secreted G7 = molecular target: T3, secreted G7 (Homo sapiens, UniProt Q9C0J1); test: β1,3-galactosyltransferase activity of the secreted G7; settings: acceptor substrate, method of Example 11(2)
T3 construct: made in house; host or cells: Sf21 insect cells infected with recombinant baculovirus from pVL1393-F2G7
Protocol: as §1
On the other hand, when β1,3-galactosyltransferase activity of the secreted G7 was measured by using GlcNAc and GlcNAcβ1-3Galβ1-4Glc as acceptor substrates, the activity was not detected. […] The method described in Example 11(2) was used.

Measured: β1,3-galactosyltransferase activity

T3 sequence (Q9C0J1 56-378): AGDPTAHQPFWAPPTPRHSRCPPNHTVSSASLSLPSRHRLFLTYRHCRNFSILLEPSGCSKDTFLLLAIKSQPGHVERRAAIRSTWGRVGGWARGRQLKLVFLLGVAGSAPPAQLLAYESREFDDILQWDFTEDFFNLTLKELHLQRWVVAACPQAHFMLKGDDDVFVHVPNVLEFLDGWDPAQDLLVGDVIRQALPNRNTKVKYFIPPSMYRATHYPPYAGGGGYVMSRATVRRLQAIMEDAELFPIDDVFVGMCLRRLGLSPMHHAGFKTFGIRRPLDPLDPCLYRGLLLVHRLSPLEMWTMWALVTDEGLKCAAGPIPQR

CC(=O)N[C@H]1[C@H](O[C@H]2[C@@H](O)[C@@H](CO)O[C@@H](O[C@H]3[C@H](O)[C@@H](O)C(O)O[C@@H]3CO)[C@@H]2O)O[C@H](CO)[C@@H](O)[C@@H]1O (stereo partly drawn) [GlcNAcβ1-3Galβ1-4Glc]
not detected: all assays above

CC(=O)N[C@H]1C(O)O[C@H](CO)[C@@H](O)[C@@H]1O (stereo partly drawn) [GlcNAc, N-acetylglucosamine]
not detected: all assays above

Reference: patent US7972815B2, “Method of producing sugar chain using human G4 polypeptide” (Kyowa Hakko Kirin Co., Ltd., priority 1999, dated 2011)
